Measured values reported in US10344039B2, “Macrocyclic spirocarbamate derivatives as factor XIa inhibitors, pharmaceutically acceptable compositions and their use” (MERCK SHARP & DOHME CORP., priority 2015, dated 2019).

Target: T1, purified human Factor XIa (Homo sapiens, UniProt P03951)
T1 construct: purified human Factor XIa; purchased Sekisui Diagnostics
Test: Factor XIa Assay
Format: biochemical
Details: purified human Factor XIa 40 pM; substrate Z-Gly-Pro-Arg-AFC 100 μM; 50 mM HEPES pH 7.4; read-out: Hu FXIa Ki
Procedure: The effectiveness of a compound of the present invention as an inhibitor of Coagulation Factor XIa can be determined using a relevant purified serine protease, and an appropriate synthetic substrate. The rate of hydrolysis of the chromogenic or fluorogenic substrate by the relevant serine protease was measured both in the absence and presence of compounds of the present invention. Assays were conducted at room temperature or at 37° C. […] A decrease in the rate of fluorescence change in the presence of inhibitor is indicative of enzyme inhibition. Such methods are known to one skilled in the art. The results of this assay are expressed as the inhibitory constant, Ki.
Factor XIa determinations were made in 50 mM HEPES buffer at pH 7.4 containing 150 mM NaCl, 5 mM CaCl2, and 0.1% PEG 8000 (polyethylene glycol; JT Baker or Fisher Scientific). Determinations were made using purified human Factor XIa at a final concentration of 40 pM (Sekisui Diagnostics) and he synthetic substrate, Z-Gly-Pro-Arg-AFC, TFA salt (Sigma #C0980) at a concentration of 100 μM.
Activity assays were performed by diluting a stock solution of substrate at least tenfold to a final concentration ≤0.1 Km into a solution containing enzyme or enzyme equilibrated with inhibitor. Times required to achieve equilibration between enzyme and inhibitor were determined in control experiments. Initial velocities of product formation in the absence (Vo) or presence of inhibitor (Vi) were measured. Assuming competitive inhibition, and that unity is negligible compared Km/[S], [I]/e, and [I]/e (where [S], [I], and e respectively represent the total concentrations, of substrate, inhibitor and enzyme), the equilibrium constant (Ki) for dissociation of the inhibitor from the enzyme can be obtained from the dependence of Vo/Vi on [I] shown in the following equation. Vo/Vi=1+[I]/Ki
The activities shown by this assay indicate that the compounds of the invention may be therapeutically useful for treating or preventing various cardiovascular and/or cerebrovascular thromboembolic conditions in patients suffering from unstable angina, acute coronary syndrome, refractory angina, myocardial infarction, transient ischemic attacks, atrial fibrillation, stroke such as thrombotic stroke or embolic stroke, venous thrombosis, coronary and cerebral arterial thrombosis, cerebral and pulmonary embolism, atherosclerosis, deep vein thrombosis, disseminated intravascular coagulation, and reocclusion or restenosis of recanalized vessels. The Ki values measured for each of the example compounds of the invention using this assay are reported in the tables above (as “Hu FXIa Ki (nM)”).

T1 sequence (P03951 388-625 limits assumed): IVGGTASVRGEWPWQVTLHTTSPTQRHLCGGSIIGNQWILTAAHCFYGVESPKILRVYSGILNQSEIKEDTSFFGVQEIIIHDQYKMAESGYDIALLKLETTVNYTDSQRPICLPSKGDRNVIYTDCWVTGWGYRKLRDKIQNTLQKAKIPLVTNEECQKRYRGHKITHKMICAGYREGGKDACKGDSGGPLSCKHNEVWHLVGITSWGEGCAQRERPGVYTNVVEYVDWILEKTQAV
T1 sequence (P03951 19-387 partner limits assumed): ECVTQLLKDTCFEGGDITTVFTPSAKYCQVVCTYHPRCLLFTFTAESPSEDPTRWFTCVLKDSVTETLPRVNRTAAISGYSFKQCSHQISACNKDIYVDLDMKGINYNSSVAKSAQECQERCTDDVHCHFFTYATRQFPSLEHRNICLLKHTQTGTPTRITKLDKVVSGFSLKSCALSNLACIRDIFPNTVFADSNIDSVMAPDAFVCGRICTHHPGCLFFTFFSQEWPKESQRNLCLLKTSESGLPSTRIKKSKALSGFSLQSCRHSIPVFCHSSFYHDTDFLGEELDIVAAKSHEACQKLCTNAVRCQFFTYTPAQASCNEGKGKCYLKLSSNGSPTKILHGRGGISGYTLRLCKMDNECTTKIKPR

Compound | Ki
COC(=O)Nc1ccc2c(c1)NC(=O)CCCC[C@H](C(=O)N1CC[C@@]3(C1)OC(=O)Nc1ccc(Cl)cc13)c1nc-2c[nH]1 (single isomer, unassigned) [Example 1b] | 0.258 µM
O=C1CCCC[C@@H](C(=O)N2CCC[C@@]3(C2)OC(=O)Nc2ccc(Cl)cc23)c2nc(c[nH]2)-c2ccc(F)cc2N1 (single isomer, unassigned) [Example 2a] | 0.268 µM
O=C1CCCC[C@H](C(=O)N2CCC[C@@]3(C2)OC(=O)Nc2ccc(Cl)cc23)c2nc(c[nH]2)-c2ccc(F)cc2N1 (single isomer, unassigned) [Example 2b] | > 5 µM
COC(=O)Nc1ccc2c(c1)NC(=O)CCCC[C@H](C(=O)N1CCC[C@@]3(C1)OC(=O)Nc1ccc(Cl)c(F)c13)c1nc-2c(C)[nH]1 (single isomer, unassigned) [Example 12a] | 0.471 µM
COC(=O)Nc1ccc2c(c1)NC(=O)C(C)CCCC(C(=O)N1CCC[C@@]3(C1)OC(=O)Nc1ccc(Cl)cc13)c1cc-2ccn1 (single isomer, unassigned) [Example 15b] | 0.749 µM
COC(=O)Nc1ccc2c(c1)NC(=O)C(C)CCCC(C(=O)N1CCC[C@@]3(C1)OC(=O)Nc1ccc(Cl)cc13)c1cc-2ccn1 (single isomer, unassigned) [Example 15c] | 1.76 µM
COC(=O)Nc1ccc2c(c1)NC(=O)C(C)CCCC(C(=O)N1CCC[C@@]3(C1)OC(=O)Nc1ccc(Cl)cc13)c1cc-2ccn1 (single isomer, unassigned) [Example 15d] | > 5 µM
Nc1ccc2c(c1)NC(=O)CC/C=C\C[C@H](C(=O)N1CCC[C@@]3(C1)OC(=O)Nc1ccc(Cl)c(F)c13)c1cc-2ccn1 (single isomer, unassigned) [Example 20b] | > 0.875 µM
COC(=O)Nc1ccc2c(c1)NC(=O)CCCC[C@H](C(=O)N1CC[C@@]3(C1)OC(=O)Nc1ccc(Cl)c(F)c13)c1cccc-2n1 (single isomer, unassigned) [Example 23a] | > 0.875 µM
CCOC(=O)C1CCCCC(C(=O)N2CCC[C@@]3(C2)OC(=O)Nc2ccc(Cl)c(F)c23)c2nc(c[nH]2)-c2ccc(NC(=O)OC)cc2N1 (single isomer, unassigned) [Example 32a] | 0.143 µM
CCOC(=O)C1CCCCC(C(=O)N2CCC[C@@]3(C2)OC(=O)Nc2ccc(Cl)c(F)c23)c2nc(c[nH]2)-c2ccc(NC(=O)OC)cc2N1 (single isomer, unassigned) [Example 32c] | 0.536 µM
CCOC(=O)C1CCCCC(C(=O)N2CCC[C@@]3(C2)OC(=O)Nc2ccc(Cl)c(F)c23)c2nc(c[nH]2)-c2ccc(NC(=O)OC)cc2N1 (single isomer, unassigned) [Example 32d] | > 0.875 µM
CCOC(=O)C1CCCCC(C(=O)N2CCC[C@@]3(C2)OC(=O)Nc2ccc(Cl)c(F)c23)c2cc(ccn2)-c2cc(F)ccc2N1 (single isomer, unassigned) [Example 34a] | 0.628 µM
CCOC(=O)C1CCCCC(C(=O)N2CCC[C@@]3(C2)OC(=O)Nc2ccc(Cl)c(F)c23)c2cc(ccn2)-c2cc(F)ccc2N1 (single isomer, unassigned) [Example 34b] | > 0.875 µM
CCOC(=O)C1CCCCC(C(=O)N2CCC[C@@]3(C2)OC(=O)Nc2ccc(Cl)c(F)c23)c2cc(ccn2)-c2cc(F)ccc2N1 (single isomer, unassigned) [Example 34c] | 0.196 µM
CCOC(=O)C1CCCCC(C(=O)N2CCC[C@@]3(C2)OC(=O)Nc2ccc(Cl)c(F)c23)c2cc(ccn2)-c2cc(F)ccc2N1 (single isomer, unassigned) [Example 34d] | > 0.875 µM
O=C1Nc2ccc(Cl)c(F)c2[C@@]2(CCCN(C(=O)C3CCCCC(C(=O)O)Nc4ccc(F)cc4-c4ccnc3c4)C2)O1 (single isomer, unassigned) [Example 35a] | > 0.875 µM
O=C1Nc2ccc(Cl)c(F)c2[C@@]2(CCCN(C(=O)C3CCCCC(C(=O)O)Nc4ccc(F)cc4-c4ccnc3c4)C2)O1 (single isomer, unassigned) [Example 35b] | > 0.875 µM
CCOC(=O)C1CCCCC(C(=O)N2CC[C@@]3(C2)OC(=O)Nc2ccc(Cl)c(F)c23)c2cc(ccn2)-c2cc(F)ccc2N1 (single isomer, unassigned) [Example 36a] | > 0.875 µM
CCOC(=O)C1CCCCC(C(=O)N2CC[C@@]3(C2)OC(=O)Nc2ccc(Cl)c(F)c23)c2cc(ccn2)-c2cc(F)ccc2N1 (single isomer, unassigned) [Example 36b] | > 0.875 µM
O=C1Nc2ccc(Cl)c(F)c2[C@@]2(CCN(C(=O)C3CCCCC(C(=O)O)Nc4ccc(F)cc4-c4ccnc3c4)C2)O1 (single isomer, unassigned) [Example 37a] | > 0.875 µM
O=C1Nc2ccc(Cl)c(F)c2[C@@]2(CCN(C(=O)C3CCCCC(C(=O)O)Nc4ccc(F)cc4-c4ccnc3c4)C2)O1 (single isomer, unassigned) [Example 37b] | > 0.875 µM
COC(=O)Nc1ccc2c(c1)NC(=O)CCCC[C@H](C(=O)N1CCC[C@@]3(C1)OC(=O)Nc1ccc(Cl)cc13)c1nc-2c[nH]1 [Example 3b, methyl ((S,Z)-9-((R)-6-chloro-2-oxo-1,2-dihydrospiro[benzo[d][1,3]oxazine-4,3′-piperidine]-1′-carbonyl)-4-oxo-1^1H-3-aza-1(4,2)-imidazola-2(1,2)-benzenacyclononaphane-2^4-yl)carbamate] | 0.065 µM
O=C1CCCC[C@H](C(=O)N2CC[C@@]3(C2)OC(=O)Nc2ccc(Cl)cc23)c2nc(c[nH]2)-c2ccc(F)cc2N1 [Example 5a, (R)-6-chloro-1′-((S,Z)-2^4-fluoro-4-oxo-1^1H-3-aza-1(4,2)-imidazola-2(1,2)-benzenacyclononaphane-9-carbonyl)spiro[benzo[d][1,3]oxazine-4,3′-pyrrolidin]-2(1H)-one] | > 8.75 µM
COC(=O)Nc1ccc2c(c1)NC(=O)CCCC[C@H](C(=O)N1CCC[C@@]3(C1)OC(=O)Nc1ccc(Cl)cc13)c1nc-2c(Cl)[nH]1 [Example 7b, methyl ((S,Z)-1^5-chloro-9-((R)-6-chloro-2-oxo-1,2-dihydrospiro[benzo[d][1,3]oxazine-4,3′-piperidine]-1′-carbonyl)-4-oxo-1^1H-3-aza-1(4,2)-imidazola-2(1,2)-benzenacyclononaphane-2^4-yl)carbamate] | 1.83 µM
COC(=O)Nc1ccc2c(c1)NC(=O)CCCC[C@H](C(=O)N1CC[C@@]3(C1)OC(=O)Nc1ccc(Cl)c(F)c13)c1nc-2c(C)[nH]1 [Example 13a, methyl ((S,Z)-9-((R)-6-chloro-5-fluoro-2-oxo-1,2-dihydrospiro[benzo[d][1,3]oxazine-4,3′-pyrrolidine]-1′-carbonyl)-1^5-methyl-4-oxo-1^1H-3-aza-1(4,2)-imidazola-2(1,2)-benzenacyclononaphane-2^4-yl)carbamate] | 0.195 µM
COC(=O)Nc1ccc2c(c1)NC(=O)[C@H](C)CCC[C@H](C(=O)N1CCC[C@@]3(C1)OC(=O)Nc1ccc(Cl)c(F)c13)C1=NC=C2O1 [Example 14b, methyl ((5R,9S)-9-((R)-6-chloro-5-fluoro-2-oxo-1,2-dihydrospiro[benzo[d][1,3]oxazine-4,3′-piperidine]-1′-carbonyl)-5-methyl-4-oxo-3-aza-1(5,2)-oxazola-2(1,2)-benzenacyclononaphane-2^4-yl)carbamate] | 0.217 µM
COC(=O)Nc1ccc2c(c1)NC(=O)CCCCC[C@H](C(=O)N1CCC[C@@]3(C1)OC(=O)Nc1ccc(Cl)cc13)c1cc-2ccn1 [Example 16a, methyl ((S)-10-((R)-6-chloro-2-oxo-1,2-dihydrospiro[benzo[d][1,3]oxazine-4,3′-piperidine]-1′-carbonyl)-4-oxo-3-aza-1(4,2)-pyridina-2(1,2)-benzenacyclodecaphane-2^4-yl)carbamate] | > 0.875 µM
COC(=O)Nc1ccc2c(c1)NC(=O)CCCCC[C@@H](C(=O)N1CCC[C@@]3(C1)OC(=O)Nc1ccc(Cl)cc13)c1cc-2ccn1 [Example 16b, methyl ((R)-10-((R)-6-chloro-2-oxo-1,2-dihydrospiro[benzo[d][1,3]oxazine-4,3′-piperidine]-1′-carbonyl)-4-oxo-3-aza-1(4,2)-pyridina-2(1,2)-benzenacyclodecaphane-2^4-yl)carbamate] | 0.284 µM
COC(=O)Nc1ccc2c(c1)NC(=O)CCCC[C@H](C(=O)N1CC[C@@]3(C1)OC(=O)Nc1ccc(Cl)cc13)c1cc-2ccn1 [Example 17b, methyl ((S)-9-((R)-6-chloro-2-oxo-1,2-dihydrospiro[benzo[d][1,3]oxazine-4,3′-pyrrolidine]-1′-carbonyl)-4-oxo-3-aza-1(4,2)-pyridina-2(1,2)-benzenacyclononaphane-2^4-yl)carbamate] | > 8.75 µM
